The assay concerns the target T1, VvD14c (Vitis vinifera, UniProt A0ACM8QNI4).
T1 construct: gene VIT_18s0001g09140; pET-28b, His-tag, E. coli Rosetta (DE3); VvD14c encodes 267 amino acids
In words: surface plasmon resonance (Biacore 8K, CM5 chip, LMW multi-cycle kinetics/affinity). The format is binding. (In general: SPR reads the build-up and loss of mass on a sensor chip optically.)

What is called Kd is the concentration at which binding is half-saturated. A higher Kd goes with a looser complex.

T1 sequence (A0ACM8QNI4 entry or part of it): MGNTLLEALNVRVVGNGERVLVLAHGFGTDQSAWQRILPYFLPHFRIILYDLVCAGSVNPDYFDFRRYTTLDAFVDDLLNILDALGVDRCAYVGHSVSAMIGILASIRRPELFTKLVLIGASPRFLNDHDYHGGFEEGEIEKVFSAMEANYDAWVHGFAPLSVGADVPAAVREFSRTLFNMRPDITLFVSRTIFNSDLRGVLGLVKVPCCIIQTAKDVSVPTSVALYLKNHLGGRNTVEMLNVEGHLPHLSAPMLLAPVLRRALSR

`CC1=C[C@@H](O/C=C2/C(=O)O[C@@H]3c4ccccc4C[C@H]23)OC1=O` [GR24]: the Kd is 5.65 nM.

(Values after publication PMC11515387, “VvD14c-VvMAX2-VvLOB/VvLBD19 module is involved in the strigolactone-mediated regulation of grapevine root architecture” (Molecular Horticulture, 2024).)
